Laboratory results from patent publication US12441695B2, “Substituted thiadiazinone dioxide and preparation method therefor, herbicidal composition, and application therefor” (Qingdao Kingagroot Chemical Compound Co., Ltd., priority 2019, dated 2025).

What was measured:
[1] = tested on: major crops (wheat, corn, rice, soybean, cotton, oilseed rape, millet, sorghum); test: Experiment on weeding effect in post-emergence stage (crops); type: in vivo; settings: 600 g/ha active ingredient plus water 450 kg/ha, 3 weeks after application; for corn plant damage level (growth control rate): crop corn; for rice plant damage level (growth control rate): crop rice; for soybean plant damage level (growth control rate): crop soybean
Protocol: (§1) The above growth control rates are fresh weight control rates.
(§2) (1) Experiment on weeding effect in post-emergence stage: monocotyledonous and dicotyledonous weed seeds and major crop seeds (wheat, corn, rice, soybean, cotton, oilseed rape, millet, sorghum) were placed in plastic pots filled with soil, then covered with 0.5-2 cm of soil, allowed to grow in a good greenhouse environment. After 2-3 weeks of sowing, the test plants were treated. The tested compounds of the present invention were respectively dissolved in acetone, then added with Tween 80, diluted with a certain amount of water to obtain a solution with a certain concentration, and sprayed with a spray tower onto the plants.

[2] = tested on: monocotyledonous and dicotyledonous weeds; test: Experiment on weeding effect in post-emergence stage (weeds); type: in vivo; settings: 3 weeks after application; for Amaranthus retroflexus activity level (growth control rate): fomesafen-resistant Amaranthus retroflexus
Description: The activity level criteria for plant damage (i.e., growth control rate) are as follows: • Level 5: growth control rate is above 85%; • Level 4: growth control rate is greater than or equal to 60% and less than 85%; • Level 3: growth control rate is greater than or equal to 40% and less than 60%; • Level 2: growth control rate is greater than or equal to 20% and less than 40%; • Level 1: growth control rate is greater than or equal to […]; • Level 0: growth control rate is less than 5%.
as §1
as §2, with “plants. After the application, the plants were cultured for 3 weeks in the greenhouse, and then the experimental results of the weeding were listed in Table 2.” for “plants.”

[3] = 600 g/ha active ingredient plus water 450 kg/ha, fresh weight control rate

Row | Compound | corn plant damage level (growth control rate) [1] | rice plant damage level (growth control rate) [1] | soybean plant damage level (growth control rate) [1] | Amaranthus retroflexus activity level (growth control rate) [2, 3] | Digitaria sanguinalis activity level (growth control rate) [2, 3] | Echinochloa crus-galli activity level (growth control rate) [2, 3] | Setaria viridis activity level (growth control rate) [2, 3] | Digitaria sanguinalis activity level (growth control rate) ([2]; 300 g/ha) | Echinochloa crus-galli activity level (growth control rate) ([2]; 300 g/ha) | Setaria viridis activity level (growth control rate) ([2]; 300 g/ha) | Amaranthus retroflexus activity level (growth control rate) ([2]; 300 g/ha)
1 | CC(C)N1C(=O)c2cc(F)cc(Cl)c2NS1(=O)=O [Compound 144] | 1 (Level 1: growth control rate is greater than or equal to 500 and less than 200%) | 0 (Level 0: growth control rate is less than 5%) | 1 (Level 1: growth control rate is greater than or equal to 500 and less than 200%) | 5 (Level 5: growth control rate is above 85%) | 5 (Level 5: growth control rate is above 85%) | 5 (Level 5: growth control rate is above 85%) | 5 (Level 5: growth control rate is above 85%) |  |  |  | 
2 | CC(C)N1C(=O)c2cc(F)cc(F)c2N(C(=O)OCCCCl)S1(=O)=O [Compound 221] |  |  |  | 5 (Level 5: growth control rate is above 85%) | 5 (Level 5: growth control rate is above 85%) | 4 (Level 4: growth control rate is greater than or equal to 60% and less than 85%) | 5 (Level 5: growth control rate is above 85%) |  |  |  | 
3 | CC(=O)N1c2c(F)cc(F)cc2C(=O)N(C(C)C)S1(=O)=O [Compound 150] | 1 (Level 1: growth control rate is greater than or equal to 500 and less than 200%) | 1 (Level 1: growth control rate is greater than or equal to 500 and less than 200%) | 1 (Level 1: growth control rate is greater than or equal to 500 and less than 200%) | 5 (Level 5: growth control rate is above 85%) | 5 (Level 5: growth control rate is above 85%) | 5 (Level 5: growth control rate is above 85%) | 5 (Level 5: growth control rate is above 85%) |  |  |  | 
4 | CCOC(=O)OC(C)N1c2c(Br)cc(F)cc2C(=O)N(C(C)C)S1(=O)=O (stereo not shown) [Compound 155] | 0 (Level 0: growth control rate is less than 5%) | 0 (Level 0: growth control rate is less than 5%) | 1 (Level 1: growth control rate is greater than or equal to 500 and less than 200%) | 5 (Level 5: growth control rate is above 85%) | 5 (Level 5: growth control rate is above 85%) | 5 (Level 5: growth control rate is above 85%) | 5 (Level 5: growth control rate is above 85%) |  |  |  | 
5 | CC(=O)N1c2ccc(F)cc2C(=O)N(C(C)C)S1(=O)=O [Compound 62] | 0 (Level 0: growth control rate is less than 5%) | 0 (Level 0: growth control rate is less than 5%) | 0 (Level 0: growth control rate is less than 5%) | 5 (Level 5: growth control rate is above 85%) |  | 3 (Level 3: growth control rate is greater than or equal to 40% and less than 60%) | 3 (Level 3: growth control rate is greater than or equal to 40% and less than 60%) |  |  |  | 
6 | CCN1C(=O)c2cc(F)ccc2NS1(=O)=O [Compound 157] | 0 (Level 0: growth control rate is less than 5%) | 0 (Level 0: growth control rate is less than 5%) | 0 (Level 0: growth control rate is less than 5%) | 3 (Level 3: growth control rate is greater than or equal to 40% and less than 60%) |  |  |  |  |  |  | 
7 | CC(C)N1C(=O)c2cc(F)cnc2NS1(=O)=O [Compound 75] | 1 (Level 1: growth control rate is greater than or equal to 500 and less than 200%) | 1 (Level 1: growth control rate is greater than or equal to 500 and less than 200%) |  | 4 (Level 4: growth control rate is greater than or equal to 60% and less than 85%) |  | 3 (Level 3: growth control rate is greater than or equal to 40% and less than 60%) | 3 (Level 3: growth control rate is greater than or equal to 40% and less than 60%) |  |  |  | 
8 | CCCCCCCCSC(=O)N1c2ccc(F)cc2C(=O)N(C(C)C)S1(=O)=O [Compound 189] | 0 (Level 0: growth control rate is less than 5%) | 0 (Level 0: growth control rate is less than 5%) | 0 (Level 0: growth control rate is less than 5%) | 4 (Level 4: growth control rate is greater than or equal to 60% and less than 85%) |  |  |  |  |  |  | 
9 | CC(C)N1C(=O)c2cc(F)c(Cl)cc2NS1(=O)=O [Compound 147] | 0 (Level 0: growth control rate is less than 5%) | 0 (Level 0: growth control rate is less than 5%) |  | 3 (Level 3: growth control rate is greater than or equal to 40% and less than 60%) |  |  |  |  |  |  | 
10 | CCCCOC(=O)N1c2c(F)cc(F)cc2C(=O)N(C(C)C)S1(=O)=O [Compound 220] | 1 (Level 1: growth control rate is greater than or equal to 500 and less than 200%) |  |  | 4 (Level 4: growth control rate is greater than or equal to 60% and less than 85%) | 3 (Level 3: growth control rate is greater than or equal to 40% and less than 60%) | 5 (Level 5: growth control rate is above 85%) | 5 (Level 5: growth control rate is above 85%) |  |  |  | 
11 | CCCS(=O)(=O)N1c2ccc(F)cc2C(=O)N(C(C)C)S1(=O)=O [Compound 196] | 0 (Level 0: growth control rate is less than 5%) |  | 0 (Level 0: growth control rate is less than 5%) | 5 (Level 5: growth control rate is above 85%) | 3 (Level 3: growth control rate is greater than or equal to 40% and less than 60%) | 5 (Level 5: growth control rate is above 85%) | 5 (Level 5: growth control rate is above 85%) |  |  |  | 
12 | CC(C)N1C(=O)c2cc(F)cc(F)c2NS1(=O)=O [Compound 142] | 1 (Level 1: growth control rate is greater than or equal to 500 and less than 200%) | 1 (Level 1: growth control rate is greater than or equal to 500 and less than 200%) | 1 (Level 1: growth control rate is greater than or equal to 500 and less than 200%) | 5 (Level 5: growth control rate is above 85%) | 5 (Level 5: growth control rate is above 85%) | 5 (Level 5: growth control rate is above 85%) | 5 (Level 5: growth control rate is above 85%) |  |  |  | 
13 | CCS(=O)(=O)N1c2c(F)cc(F)cc2C(=O)N(C(C)C)S1(=O)=O [Compound 228] |  |  |  | 5 (Level 5: growth control rate is above 85%) | 3 (Level 3: growth control rate is greater than or equal to 40% and less than 60%) | 3 (Level 3: growth control rate is greater than or equal to 40% and less than 60%) | 5 (Level 5: growth control rate is above 85%) |  |  |  | 
14 | CS(=O)(=O)NC(=O)c1cc(Oc2ccc(C(F)(F)F)cc2Cl)ccc1[N+](=O)[O-] [fomesafen, reference compound] |  |  |  |  |  |  |  | 0 (Level 0: growth control rate is less than 5%) | 1 (Level 1: growth control rate is greater than or equal to 500 and less than 200%) | 2 (Level 2: growth control rate is greater than or equal to 20% and less than 40%) | 1 (Level 1: growth control rate is greater than or equal to 500 and less than 200%)
